Measured values reported in patent US7309708B2, “Hepatitis C virus inhibitors” (priority 2003, dated 2007).

Experiments:
[1] = biological target: T1, HCV NS3/4A protease complex (BMS strain) (UniProt P27958); assay: Recombinant HCV NS3/4A protease complex FRET peptide assay (BMS strain); format: biochemical, Hepatitis C virus (genotype 1a; details: read-out: IC50 (uuM); NS3/4A BMS strain; activity range class
T1 construct: for H77 and J4L6S; fused on or other part: Probably a three-lysine solubilising tail at the C-terminus of NS4A and a His tag from pET21b (Ni-NTA purification); These are printed for the H77 and J4L6S constructs and only inferred for BMS
T1 sequence (P27958 1027-1657, one chain of several): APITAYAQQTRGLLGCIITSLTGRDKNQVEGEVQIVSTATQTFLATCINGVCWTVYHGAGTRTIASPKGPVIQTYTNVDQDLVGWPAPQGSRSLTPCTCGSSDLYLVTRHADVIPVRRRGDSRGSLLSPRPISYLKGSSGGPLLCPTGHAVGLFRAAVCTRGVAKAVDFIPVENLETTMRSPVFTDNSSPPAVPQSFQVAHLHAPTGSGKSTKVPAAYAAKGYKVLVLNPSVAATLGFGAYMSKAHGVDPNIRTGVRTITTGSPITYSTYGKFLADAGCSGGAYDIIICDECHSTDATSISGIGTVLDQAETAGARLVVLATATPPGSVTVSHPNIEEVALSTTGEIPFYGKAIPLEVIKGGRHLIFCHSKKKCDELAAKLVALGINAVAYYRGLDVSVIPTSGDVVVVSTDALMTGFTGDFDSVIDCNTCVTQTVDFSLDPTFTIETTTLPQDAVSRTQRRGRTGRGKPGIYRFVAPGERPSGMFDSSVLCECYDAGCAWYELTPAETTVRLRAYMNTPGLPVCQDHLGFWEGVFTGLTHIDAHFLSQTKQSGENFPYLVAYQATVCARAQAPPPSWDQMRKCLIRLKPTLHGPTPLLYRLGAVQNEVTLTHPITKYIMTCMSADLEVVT
From the text: Serum from an HCV-infected patient was obtained from Dr. T. Wright, San Francisco Hospital. An engineered full-length cDNA (compliment deoxyribonucleic acid) template of the HCV genome (BMS strain) was constructed from DNA fragments obtained by reverse transcription-PCR (RT-PCR) of serum RNA (ribonucleic acid) and using primers selected on the basis of homology between other genotype 1a strains.
The H77 and J4L6S strains were used for production of recombinant NS3/4A protease complexes. […] Briefly, a three-lysine solubilizing tail was added at the 3′-end of the NS4A coding region. […] Briefly, the NS3/4A protease complex expression was induced with 0.5 millimolar (mM) Isopropyl β-D-1-thiogalactopyranoside (IPTG) for 22 hours (h) at 20° C. […] The cells were resuspended in lysis buffer (10 mL/g) consisting of 25 mM N-(2-Hydroxyethyl)Piperazine-N′-(2-Ethane Sulfonic acid) (HEPES), pH 7.5, 20% glycerol, 500 mM Sodium Chloride (NaCl), 0.5% Triton X-100, 1 microgram/milliliter (“μg/mL”) lysozyme, 5 mM Magnesium Chloride (MgCl2), 1 gg/ml DnaseI, 5 mM β-Mercaptoethanol (βME), Protease inhibitor—Ethylenediamine Tetraacetic acid (EDTA) free (Roche), homogenized and incubated for 20 minutes (min) at 4° C. The homogenate was sonicated and clarified by ultra-centrifugation at 235000 g for 1 h at 4° C. Imidazole was added to the supernatant to a final concentration of 15 mM and the pH adjusted to 8.0. The crude protein extract was loaded on a Nickel-Nitrilotriacetic acid (Ni-NTA) column pre-equilibrated with buffer B (25 mM HEPES, pH 8.0, 20% glycerol, 500 mM NaCl, 0.5% Triton X-100, 15 mM imidazole, 5 mM βME). The sample was loaded at a flow rate of 1 mL/min. The column was washed with 15 column volumes of buffer C (same as buffer B except with 0.2% Triton X-100). The protein was eluted with 5 column volumes of buffer D (same as buffer C except with 200 mM Imidazole).
NS3/4A protease complex-containing fractions were pooled and loaded on a desalting column Superdex-S200 pre-equilibrated with buffer D (25 mM HEPES, pH 7.5, 20% glycerol, 300 mM NaCl, 0.2% Triton X-100, 10 mM βME). Sample was loaded at a flow rate of 1 mL/min. NS3/4A protease complex-containing fractions were pooled and concentrated to approximately 0.5 mg/ml.
The enzyme was stored at −80° C., thawed on ice and diluted prior to use in assay buffer. […] The sequence of this peptide is loosely based on the NS4A/NS4B natural cleavage site for the HCV NS3 protease except there is an ester linkage rather than an amide bond at the cleavage site. The peptide substrate was incubated with one of the three recombinant NS3/4A protease complexes, in the absence or presence of a compound of the present invention, and the formation of fluorescent reaction product was followed in real time using a Cytofluor Series 4000.
Assay buffer: 50 mM HEPES, pH 7.5; 0.15 M NaCl; 0.1% Triton; 15% Glycerol; 10 mM βME. Substrate: 2 μM final concentration (from a 2 mM stock solution in DMSO stored at −20° C.). HCV NS3/4A protease type 1a (1b), 2-3 nM final concentration (from a 5 μM stock solution in 25 mM HEPES, pH 7.5, 20% glycerol, 300 mM NaCl, 0.2% Triton-X100, 10 mM βME).
The assay was performed in a 96-well polystyrene black plate from Falcon. Each well contained 25 μl NS3/4A protease complex in assay buffer, 50 μl of a compound of the present invention in 10% DMSO/assay buffer and 25 μl substrate in assay buffer. A control (no compound) was also prepared on the same assay plate.

[2] = system: HCV replicon (strain 1b) in Huh7 cells; assay: microbe, parasite or virus in culture; format: cell-based; details: Hepatitis C virus, Huh-7, 96 h; Huh7 cells expressing HCV replicon, 4 days; activity range class
From the text: This system enabled us to evaluate the effects of our HCV Protease compounds on HCV RNA replication. Briefly, using the HCV strain 1b sequence described in the Lohmann paper (Assession number: AJ238799), an HCV cDNA was generated encoding the 5′ internal ribosome entry site (IRES), the neomycin resistance gene, the EMCV (encephalomyocarditis virus)-IRES and the HCV nonstructural proteins, NS3-NS5B, and 3′ non-translated region (NTR). In vitro transcripts of the cDNA were transfected into the human hepatoma cell line, Huh7. […] Resulting cell lines were characterized for positive and negative strand RNA production and protein production over time.
Huh7 cells, constitutively expressing the HCV replicon, were grown in Dulbecco's Modified Eagle Media (DMEM) containing 10% Fetal calf serum (FCS) and 1 mg/ml G418 (Gibco-BRL). Cells were seeded the night before (1.5×10^4 cells/well) in 96-well tissue-culture sterile plates. Compound and no compound controls were prepared in DMEM containing 4% FCS, 1:100 Penicillin/Streptomysin, 1:100 L-glutamine and 5% DMSO in the dilution plate (0.5% DMSO final concentration in the assay). Compound/DMSO mixes were added to the cells and incubated for 4 days at 37° C. After 4 days, plates were rinsed thoroughly with Phosphate-Buffered Saline (PBS) (3 times 150 μl). The cells were lysed with 25 μl of a lysis assay reagent containing the FRET peptide (RET S1, as described for the in vitro enzyme assay). The lysis assay reagent was made from 5× cell Luciferase cell culture lysis reagent (Promega #E153A) diluted to 1× with distilled water, NaCl added to 150 mM final, the FRET peptide diluted to 10 μM final from a 2 mM stock in 100% DMSO. The plate was then placed into the Cytofluor 4000 instrument which had been set to 340 nm excitation/490 nm emission, automatic mode for 21 cycles and the plate read in a kinetic mode. EC50 determinations were carried out as described for the IC50 determinations.
The replicon construct described for our FRET assay was modified by replacing the resistance gene neomycin with the Blasticidin-resistance gene fused to the N-terminus of the humanized form of Renilla luciferase (restriction sites Asc1/Pme1 used for the subcloning). […] The luciferase reporter assay was set up by seeding huh7 cells the night before at a density of 2×10^6 cells per T75 flask. Cells were washed the next day with 7.5 ml Opti-MEM. Following the Invitrogen protocol, 40 μl DMRIE-C was vortexed with 5 ml Opti-MEM before adding 5 μg HCV reporter replicon RNA. The mix was added to the washed huh7 cells and left for 4 h at 37° C. In the mean time, serial compound dilutions and no compound controls were prepared in DMEM containing 10% FCS and 5% DMSO in the dilution plate (0.5% DMSO final concentration in the assay). Compound/DMSO mixes were added to each well of a 24-well plate. After 4 h, the transfection mix was aspirated, and cells washed with 5 ml of Opti-MEM before trypsinization. Trypsinized cells were resuspended in 10% DMEM and seeded at 2×10^4 cells/well in the 24-well plates containing compound or no compound controls. Plates were incubated for 4 days. After 4 days, media was removed and cells washed with PBS. 100 μl 1× Renilla Luciferase Lysis Buffer (Promega) was immediately added to each well and the plates either frozen at −80° C. for later analysis, or assayed after 15 min of lysis. Lysate (40 μl) from each well was transferred to a 96-well black plate (clear bottom) followed by 200 μl 1× Renilla Luciferase assay substrate. Plates were read immediately on a Packard TopCount NXT using a luminescence program.
The values were graphed and analyzed using XLFit to obtain the EC50 value.

SMILES | IC50 [1] [nM] | EC50 [2] [nM]
C=C[C@@H]1C[C@]1(NC(=O)[C@@H]1C[C@@H](Oc2nccc3cc(OC)ccc23)CN1C(=O)[C@@H](NC(=O)OC(C)(C)C)C(C)(C)C)C(=O)NS(=O)(=O)c1sc(C)nc1C [Compound 1003] | 100 to 1000 | 100 to 1000
C=C[C@@H]1C[C@]1(NC(=O)[C@@H]1C[C@@H](Oc2nccc3cc(OC)ccc23)CN1C(=O)[C@@H](NC(=O)OC(C)(C)C)C(C)(C)C)C(=O)NS(=O)(=O)c1cc(Cl)c(Cl)s1 [Compound 1001] | < 100 | 1000 to 10000
C=C[C@@H]1C[C@]1(NC(=O)[C@@H]1C[C@@H](Oc2nccc3cc(OC)ccc23)CN1C(=O)[C@@H](NC(=O)OC(C)(C)C)C(C)(C)C)C(=O)NS(=O)(=O)c1c(C)noc1C [Compound 1012] | 1000 to 10000 | 
C=C[C@@H]1C[C@]1(NC(=O)[C@@H]1C[C@@H](Oc2nccc3cc(OC)ccc23)CN1C(=O)[C@@H](NC(=O)OC(C)(C)C)C(C)(C)C)C(=O)NS(=O)(=O)c1nnc(NC(C)=O)s1 [Compound 1011] | < 100 | 1000 to 10000
C=C[C@@H]1C[C@]1(NC(=O)[C@@H]1C[C@@H](Oc2nccc3cc(OC)ccc23)CN1C(=O)[C@@H](NC(=O)OC(C)(C)C)C(C)(C)C)C(=O)NS(=O)(=O)c1c(C)nn(C)c1Cl [Compound 1004] | 100 to 1000 | 100 to 1000
C=C[C@@H]1C[C@]1(NC(=O)[C@@H]1C[C@@H](Oc2nccc3cc(OC)ccc23)CN1C(=O)[C@@H](NC(=O)OC(C)(C)C)C(C)(C)C)C(=O)NS(=O)(=O)c1ccccc1 [Compound 1007] | < 100 | 100 to 1000
C=C[C@@H]1C[C@]1(NC(=O)[C@@H]1C[C@@H](Oc2nccc3cc(OC)ccc23)CN1C(=O)[C@@H](NC(=O)OC(C)(C)C)C(C)(C)C)C(=O)NS(=O)(=O)c1cccs1 [Compound 1006] | < 100 | 100 to 1000
C=C[C@@H]1C[C@]1(NC(=O)[C@@H]1C[C@@H](Oc2nccc3cc(OC)ccc23)CN1C(=O)[C@@H](NC(=O)OC(C)(C)C)C(C)(C)C)C(=O)NS(=O)(=O)c1cn(C)cn1 [Compound 1005] | 1000 to 10000 | 1000 to 10000
